Tests used:
[1] = tested on: striatal dopamine efflux (dopamine oxidation current); experiment: STN stimulation-evoked striatal dopamine efflux, constant potential amperometry, effects of selective reuptake inhibitors; assay type: in vivo, rat; details: post-drug, 20 mg/kg systemic injection, STN stimulation 15 pulses, 50 Hz, 300 μA
[2] = tested on: glutamate release in ferret thalamic slices (A1 lamina of the LGN); experiment: HFS-induced glutamate release in thalamic slices measured with a glutamate sensor; assay type: cell-based
[3] = tested on: GABAA receptors; experiment: Extracellular recording of spontaneous spindle waves in LGN slice with GABAA receptors blocked; assay type: cell-based; details: 20 μM in bath; ferret LGN slice; n=5 slices
Method: For the preparation of slices, 3-4 month old male or female ferrets (muftela putoriouf furo; Marshall Farms; North Rose, New York) were deeply anesthetized with sodium pentobarbital (30-40 mg/kg) and killed by decapitation. The forebrain was rapidly removed, and the hemispheres were separated with a midline incision. Four hundred micron thick slices were cut using a vibratome (Ted Pella, Inc.) in the sagittal plane. During preparation of slices, the tissue was placed in a solution (5° C.) in which NaCl was replaced with sucrose while maintaining an osmolarity of 307 mOsm to increase tissue viability. […]
Intracellular recording electrodes were formed on a Sutter Instruments P-2000 laser micropipette puller from medium-walled glass (WPI, 1B100F). […] The data was analyzed using Chart (eDaq) on a Pentium style computer and figures were drawn using Core1DRAW (Corel).
To test the functional effects of HFS-mediated glutamate release, simultaneous intracellular and extracellular recordings were made in the ferret lateral geniculate nucleus (LGN) in vitro slice preparation, which generates spontaneous spindle waves (FIG. 14; n=21). Spindle activity was recorded from a population of neurons (extracellular electrode), and the electrophysiological activity associated with the spindle activity was recorded from single neurons within that population. […]

## CN1Cc2c(N)cccc2C(c2ccccc2)C1 (stereo not shown) [nomifensine]
[1]
  recovery of dopamine efflux to prestimulation baseline levels (total duration): 2035 ± 132 ms
[1]; anaesthetized rat striatum
  STN electrical stimulation-evoked dopamine oxidation current (amplitude): 765±38 pA

## NC1=N[C@H](O)[C@H]2[C@H]3O[C@]4(O)O[C@@H]([C@@H](O)[C@@]2(N1)[C@@H]4O)[C@]3(O)CO [tetrodotoxin]
[2]
  block of glutamate release induced by HFS: failed to block

## picrotoxin
[3]
  effect on spontaneous spindle waves: transformed into events that resemble absence-seizure-like activity

— US20100305658A1 (priority 2004, published 2010)
